One assay has as its system HeLa. Description: Antiproliferative activity against human HeLa cells assessed as cell growth inhibition after 72 hrs by Cell titer glo assay. The class given is functional, cell-based. In general terms: Cellular ATP, detected with luciferase, serves as a proxy for viable cell number.
The subject of a further assay is SK-MEL3. Kind of assay: Antiproliferative activity against human SK-MEL3 cells assessed as cell growth inhibition after 72 hrs by Cell titer glo assay. The class given is functional, cell-based. Particulars: SK-MEL3, 72 h.
The subject of another assay is IGR-37 cell line. Kind of assay: Antiproliferative activity against human IGR37 cells assessed as cell growth inhibition after 72 hrs by Cell titer glo assay. The format is functional, cell-based. Particulars: IGR-37, 72 h.
The target in assay [1] is cGMP-inhibited 3',5'-cyclic phosphodiesterase 3A (Homo sapiens, UniProt Q14432). Description: Inhibition of human full length PDE3A expressed in Sf9 cells measured after 60 mins by [3H]-cAMP Scintillation proximity assay. (In general: SPA uses beads or plates that emit light when radiolabelled molecules are held near them.)
The target of assay [2] is cGMP-inhibited 3',5'-cyclic phosphodiesterase 3B (Homo sapiens, UniProt Q13370). Description: Inhibition of human full length PDE3B expressed in Sf9 cells measured after 60 mins by [3H]-cAMP Scintillation proximity assay.

This note sets out measurements from ChEMBL document CHEMBL4825718, “Novel Dihydrooxadiazinones as PDE3 Inhibitors for Treating Cancer” (ACS Med Chem Lett, 2021).

SMILES strings stand for the structures.

cGMP-inhibited 3',5'-cyclic phosphodiesterase 3B, sequence (Q13370 whole entry): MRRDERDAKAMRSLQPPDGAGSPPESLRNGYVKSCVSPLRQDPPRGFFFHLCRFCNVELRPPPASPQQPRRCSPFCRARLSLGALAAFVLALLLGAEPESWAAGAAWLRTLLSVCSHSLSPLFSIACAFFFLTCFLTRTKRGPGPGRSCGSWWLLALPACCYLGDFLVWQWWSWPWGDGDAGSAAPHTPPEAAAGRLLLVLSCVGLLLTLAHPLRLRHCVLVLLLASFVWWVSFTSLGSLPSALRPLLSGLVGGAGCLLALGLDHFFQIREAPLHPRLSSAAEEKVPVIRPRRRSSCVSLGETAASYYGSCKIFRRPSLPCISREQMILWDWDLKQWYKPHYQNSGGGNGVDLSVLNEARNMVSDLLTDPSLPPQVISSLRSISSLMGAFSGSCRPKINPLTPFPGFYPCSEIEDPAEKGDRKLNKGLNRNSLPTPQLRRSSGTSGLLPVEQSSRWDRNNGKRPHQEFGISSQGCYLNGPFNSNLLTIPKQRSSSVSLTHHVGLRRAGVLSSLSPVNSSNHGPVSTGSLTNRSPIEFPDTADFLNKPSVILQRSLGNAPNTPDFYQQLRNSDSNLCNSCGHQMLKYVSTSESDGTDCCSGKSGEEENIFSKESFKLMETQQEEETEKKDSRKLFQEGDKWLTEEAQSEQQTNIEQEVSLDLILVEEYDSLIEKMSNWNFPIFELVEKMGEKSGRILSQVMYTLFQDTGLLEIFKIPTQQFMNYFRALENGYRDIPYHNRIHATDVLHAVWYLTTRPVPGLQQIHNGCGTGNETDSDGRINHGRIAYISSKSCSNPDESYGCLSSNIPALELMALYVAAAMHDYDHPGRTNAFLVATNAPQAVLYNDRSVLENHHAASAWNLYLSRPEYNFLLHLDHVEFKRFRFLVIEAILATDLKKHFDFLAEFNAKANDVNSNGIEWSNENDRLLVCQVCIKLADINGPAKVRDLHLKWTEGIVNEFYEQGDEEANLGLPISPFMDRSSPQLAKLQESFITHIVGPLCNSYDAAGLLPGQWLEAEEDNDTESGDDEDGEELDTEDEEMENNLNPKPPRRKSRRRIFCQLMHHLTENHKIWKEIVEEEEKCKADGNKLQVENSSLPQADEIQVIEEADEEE
cGMP-inhibited 3',5'-cyclic phosphodiesterase 3A, sequence (Q14432 whole entry): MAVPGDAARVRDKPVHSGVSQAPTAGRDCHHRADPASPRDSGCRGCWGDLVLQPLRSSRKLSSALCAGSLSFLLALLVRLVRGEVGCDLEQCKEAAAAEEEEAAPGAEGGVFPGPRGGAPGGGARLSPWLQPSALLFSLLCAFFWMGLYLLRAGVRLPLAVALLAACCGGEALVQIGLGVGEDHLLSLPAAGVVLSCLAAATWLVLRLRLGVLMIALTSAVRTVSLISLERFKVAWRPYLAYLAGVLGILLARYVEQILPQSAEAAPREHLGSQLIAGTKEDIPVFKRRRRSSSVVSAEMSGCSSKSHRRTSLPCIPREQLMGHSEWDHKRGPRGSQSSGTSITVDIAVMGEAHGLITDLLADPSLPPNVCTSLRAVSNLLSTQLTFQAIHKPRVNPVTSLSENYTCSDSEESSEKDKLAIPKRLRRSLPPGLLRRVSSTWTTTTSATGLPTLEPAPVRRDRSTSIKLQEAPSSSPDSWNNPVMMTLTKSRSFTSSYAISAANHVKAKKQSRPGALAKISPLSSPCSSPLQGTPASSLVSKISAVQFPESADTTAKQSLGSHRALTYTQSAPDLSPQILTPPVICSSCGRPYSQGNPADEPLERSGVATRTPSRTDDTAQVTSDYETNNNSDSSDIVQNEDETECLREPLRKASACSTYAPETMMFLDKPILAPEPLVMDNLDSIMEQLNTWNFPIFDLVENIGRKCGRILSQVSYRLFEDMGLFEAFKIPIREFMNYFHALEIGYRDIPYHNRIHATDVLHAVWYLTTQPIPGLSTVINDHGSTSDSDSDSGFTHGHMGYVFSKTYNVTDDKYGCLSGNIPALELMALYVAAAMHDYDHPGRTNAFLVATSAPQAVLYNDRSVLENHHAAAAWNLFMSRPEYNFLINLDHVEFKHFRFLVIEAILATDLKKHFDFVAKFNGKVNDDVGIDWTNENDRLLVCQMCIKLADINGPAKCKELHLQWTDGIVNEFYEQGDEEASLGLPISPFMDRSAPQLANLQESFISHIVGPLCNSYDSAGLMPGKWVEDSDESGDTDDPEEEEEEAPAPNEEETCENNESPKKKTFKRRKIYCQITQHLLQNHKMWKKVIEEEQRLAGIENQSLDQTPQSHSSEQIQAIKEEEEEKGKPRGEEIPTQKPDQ

A word on the IC50: it is the midpoint of a concentration-inhibition curve. As for `C[C@@H]1OC(=O)NN=C1c1ccc(OCCC(F)(F)F)c(C(F)(F)F)c1`, the IC50 in the assay on HeLa is 0.1 nM; in the assay on SK-MEL3, 0.3 nM; with IGR-37 cell line, 0.3 nM; in assay [1], 7 nM; in assay [2], 5 nM.
In the case of `C[C@@H]1OC(=O)NN=C1c1ccc(OC[C@@H](C)F)c(C(F)(F)F)c1`, the IC50 was 0.2 nM in the assay on HeLa; 0.5 nM in the assay on SK-MEL3; 0.3 nM in the assay with IGR-37 cell line; 9 nM in assay [1]; 9 nM in assay [2].
In the case of `CCOc1ccc(C2=NNC(=O)O[C@H]2C)cc1C(F)(F)F`, the half-maximal inhibitory concentration (IC50) in the assay with HeLa amounted to 0.3 nM; with SK-MEL3, 0.6 nM; with IGR-37 cell line, 0.5 nM; in assay [1], 6 nM; in assay [2] it was 7 nM.
On to `COCCOc1ccc(C2=NNC(=O)O[C@H]2C)cc1C(F)(F)F`, for which the IC50 was 0.1 nM with HeLa, 0.3 nM in the assay on SK-MEL3 and 0.2 nM with IGR-37 cell line.
For `CCCOc1ccc(C2=NNC(=O)O[C@H]2C)cc1C(F)(F)F`, the half-inhibitory concentration (IC50) in the assay on HeLa came to 0.1 nM; with SK-MEL3, 0.3 nM; in the assay on IGR-37 cell line, 0.3 nM; in assay [1] it was 8 nM; in assay [2] it was 5 nM.
With `CCCCOc1ccc(C2=NNC(=O)O[C@H]2C)cc1C(F)(F)F`, the IC50 was 0.2 nM with HeLa, 0.6 nM in the assay on SK-MEL3 and 0.5 nM in the assay on IGR-37 cell line.
